Laboratory results published in patent publication US10828301B2, “2,4-pyrimidinediamine compounds and their uses” (Rigel Pharmaceuticals, Inc, priority 2002, dated 2020).

How the values were obtained:
[1] = tested on: cultured human mast cells (CHMC); assay: CHMC low cell density ionomycin activation: tryptase assay; format: cell-based; conditions: Homo sapiens, Mast cell, read-out: CHMC Ionomycin Tryptase
[2] = tested on: cultured human mast cells (CHMC); assay: CHMC low cell density IgE activation: tryptase and LTC4 assays; format: cell-based; conditions: Homo sapiens, Mast cell, read-out: CHMC anti-IgE Tryptase
Procedure, shortened: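 Cultured human mast cells at low density (1000-1500 per well) rested 1 h at 37° C, then stimulated with anti-IgE for 30 min at 37° C. Supernatant tryptase measured with fluorogenic substrate (30 min, room temperature); LTC4 quantified by ELISA on diluted supernatant.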

[3] = Low Density CHMC, ionomycin activation, tryptase readout
[4] = Low Density CHMC, anti-IgE activation, tryptase readout

Row | Compound | IC50 [1, 3] [µM] | IC50 [2, 4] [µM] | IC50 [1] [µM] | IC50 [2] [µM]
1 | CC(=O)Nc1cccc(OCCCNc2ncc(F)c(Nc3ccc4c(c3)OCCO4)n2)c1 [Compound R926787, N2-[3-(3-Acetamidophenoxy)propyl]-N4-(3,4-ethylenedioxyphenyl)-5-fluoro-2,4-pyrimidinediamine] | > 10 | 5.42 | – | –
2 | Fc1cnc(Nc2ccc(-n3cnc(Cl)c3Cl)cc2)nc1Nc1ccc2c(c1)OCCO2 [Compound R926788, N2-[4-(4,5-Dichloro-1H-imidazol-1-yl)phenyl]-N4-(3,4-ethylenedioxyphenyl)-5-fluoro-2,4-pyrimidinediamine] | 6.34 | 0.336 | – | –
3 | COc1ccc(Nc2ncc(F)c(Nc3ccc4c(c3)OCCO4)n2)c(OC)c1 [Compound R926789, N2-(2,4-Dimethoxyphenyl)-N4-(3,4-ethylenedioxyphenyl)-5-fluoro-2,4-pyrimidinediamine] | > 10 | 2.31 | – | –
4 | CC(C)c1ccc(Nc2ncc(F)c(Nc3ccc4c(c3)OCCO4)n2)cc1 [Compound R926790, N4-(3,4-Ethylenedioxyphenyl)-5-fluoro-N2-(4-isopropylphenyl)-2,4-pyrimidinediamine] | 7.41 | 0.462 | – | –
5 | Cc1cc(Nc2ncc(F)c(Nc3ccc4c(c3)OCCO4)n2)c(C)cc1O [Compound R926792, N2-(2,5-Dimethyl-4-hydroxyphenyl)-N4-(3,4-ethylenedioxyphenyl)-5-fluoro-2,4-pyrimidinediamine] | > 10 | 3.2 | – | –
6 | COc1cc(Nc2nc(Nc3cccc(O)c3)ncc2F)cc(OC)c1 [Compound R926802, N4-(3,5-Dimethoxyphenyl)-N2-(3-hydroxyphenyl)-5-fluoro-2,4-pyrimidinediamine] | > 10 | 1.25 | – | –
7 | CCOC(=O)c1cc2cccc(Nc3ncc(F)c(Nc4cc(OC)cc(OC)c4)n3)c2[nH]1 [Compound R926803, N4-(3,5-Dimethoxyphenyl)-N2-(2-ethoxycarbonylindol-7-yl)-5-fluoro-2,4-pyrimidinediamine] | > 10 | 1.54 | – | –
8 | CCOC(=O)c1cc2cccc(Nc3cc(Nc4ccc5c(c4)OCCO5)c(F)cn3)c2[nH]1 [Compound R926808, N2-(2-Ethoxycarbonylindol-7-yl)-N4-(3,4-ethylenedioxyphenyl)-5-fluoro-2,4-pyridinediamine] | > 10 | 0.368 | – | –
9 | Fc1cnc(Nc2cccc(-c3cnco3)c2)nc1Nc1ccc2c(c1)OCCO2 [Compound R926813, N4-(3,4-Ethylenedioxyphenyl)-5-fluoro-N2-[3-(1,3-oxazol-5-yl)phenyl]-2,4-pyrimidinediamine] | > 10 | 0.152 | – | –
10 | CCOC(=O)c1cc2cccc(Nc3cc(Nc4cccc(O)c4)c(F)cn3)c2[nH]1 [Compound R926814, N2-(2-Ethoxycarbonylindol-7-yl)-5-fluoro-N4-(3-hydroxyphenyl)-2,4-pyridinediamine] | > 10 | 1.1 | – | –
11 | Oc1cccc(Nc2nc(Nc3cccc(-c4cnco4)c3)ncc2F)c1 [Compound R926831, 5-Fluoro-N4-(3-hydroxyphenyl)-N2-[3-(1,3-oxazol-5-yl)phenyl]-2,4-pyrimidinediamine] | 10 | 0.133 | – | –
12 | Oc1cccc(Nc2nc(Nc3cccc(-c4cc[nH]n4)c3)ncc2F)c1 [Compound R926841, 5-Fluoro-N4-(3-hydroxyphenyl)-N2-[3-(1H-pyrazol-3-yl)phenyl]-2,4-pyrimidinediamine] | > 10 | 0.551 | – | –
13 | Oc1cccc(Nc2nc(Nc3cccc(-c4nnn[nH]4)c3)ncc2F)c1 [Compound R926842, 5-Fluoro-N4-(3-hydroxyphenyl)-N2-[3-(tetrazol-5-yl)phenyl]-2,4-pyrimidinediamine] | > 10 | 7.73 | – | –
14 | Fc1cnc(Nc2cccc(-c3nnn[nH]3)c2)nc1Nc1ccc2c(c1)OCCO2 [Compound R926843, 5-Fluoro-N4-(3,4-ethylenedioxyphenyl)-N2-[3-(tetrazol-5-yl)phenyl]-2,4-pyrimidinediamine] | > 10 | 7.37 | – | –
15 | COc1ccc(Nc2ncc(F)c(Nc3ccc4c(c3)OCCO4)n2)c(C)c1 [Compound R926845, N4-(3,4-Ethylenedioxyphenyl)-5-fluoro-N2-(4-methoxy-2-methylphenyl)-2,4-pyrimidinediamine] | 7.81 | 2.56 | – | –
16 | COc1cc(Nc2ncc(F)c(Nc3cccc(O)c3)n2)c(OC)cc1Cl [Compound R926857, N2-(4-Chloro-2,5-dimethoxyphenyl)-5-fluoro-N4-(3-hydroxyphenyl)-2,4-pyrimidinediamine] | > 10 | 1.21 | – | –
17 | Oc1cccc(Nc2nc(Nc3cc(Cl)c(O)c(Cl)c3)ncc2F)c1 [Compound R926890, 5-Fluoro-N2-(3,5-dichloro-4-hydroxyphenyl)-N4-(3-hydroxyphenyl)-2,4-pyrimidinediamine] | > 10 | 0.361 | – | –
18 | Cc1cc(O)cc(N(c2ccc3c(c2)OCCO3)c2nc(N)ncc2F)c1 [Compound R926893, N4-(3,4-Ethylenedioxyphenyl)-5-fluoro-N4-(3-hydroxy-5-methylphenyl)-2,4-pyrimidinediamine] | > 10 | 10 | – | –
19 | Fc1cc(Nc2ncc(F)c(Nc3ccc4c(c3)OCCO4)n2)cc(C(F)(F)F)c1 [Compound R926894, N4-(3,4-Ethylenedioxyphenyl)-5-fluoro-N2-(3-fluoro-5-trifluoromethylphenyl)-2,4-pyrimidinediamine] | > 10 | > 10 | – | –
20 | Cc1cc(Nc2ncc(F)c(Nc3ccc4c(c3)OCCO4)n2)cc(C(F)(F)F)c1 [Compound R926895, N4-(3,4-Ethylenedioxyphenyl)-5-fluoro-N2-(3-methyl-5-trifluoromethylphenyl)-2,4-pyrimidinediamine] | > 10 | 0.339 | – | –
21 | COc1ccc(C)c(Nc2ncc(F)c(Nc3ccc4c(c3)OCCO4)n2)c1 [Compound R926896, N4-(3,4-Ethylenedioxyphenyl)-5-fluoro-N2-(5-methoxy-2-methylphenyl)-2,4-pyrimidinediamine] | > 10 | 1.62 | – | –
22 | Cc1ccc(F)c(Nc2ncc(F)c(Nc3ccc4c(c3)OCCO4)n2)c1 [Compound R926897, N4-(3,4-Ethylenedioxyphenyl)-5-fluoro-N2-(2-fluoro-5-methylphenyl)-2,4-pyrimidinediamine] | > 10 | 1.73 | – | –
23 | Fc1cc(F)cc(Nc2ncc(F)c(Nc3ccc4c(c3)OCCO4)n2)c1 [Compound R926898, N4-(3,4-Ethylenedioxyphenyl)-5-fluoro-N2-(3,5-difluorophenyl)-2,4-pyrimidinediamine] | > 10 | 1.1 | – | –
24 | Fc1cnc(Nc2ccc(SC(F)(F)F)cc2)nc1Nc1ccc2c(c1)OCCO2 [Compound R926899, N4-(3,4-Ethylenedioxyphenyl)-5-fluoro-N2-(4-trifluoromethylthiophenyl)-2,4-pyrimidinediamine] | > 10 | 1.1 | – | –
25 | CCNC(=O)Oc1cccc(Nc2ncc(F)c(Nc3cccc(O)c3)n2)c1 [Compound R926928, N2-[3-[(N-Ethylamino)carbonyloxy]phenyl]-5-fluoro-N4-(3-hydroxyphenyl)-2,4-pyrimidinediamine] | – | – | > 10 | 0.575
26 | Oc1cccc(Nc2ncc(F)c(Nc3ccc4[nH]ccc4c3)n2)c1 [Compound R926932, 5-Fluoro-N2-(3-hydroxyphenyl)-N4-[(1H)-indol-5-yl]-2,4-pyrimidinediamine] | > 10 | 0.31 | – | –
